Our source for the IC50 values is US20260092074A1, “Annelated Pyridines as Steroidogenesis Inhibitors, Preparation Method and Use Thereof” (Guangzhou Vinnocent Pharmaceutical Limited, priority 2022, published 2026).

For one test, the target named is T1, human CYP11B1 (Homo sapiens, UniProt P15538).
T1 construct: expressed in transfected cells
T1 sequence (P15538 25-503): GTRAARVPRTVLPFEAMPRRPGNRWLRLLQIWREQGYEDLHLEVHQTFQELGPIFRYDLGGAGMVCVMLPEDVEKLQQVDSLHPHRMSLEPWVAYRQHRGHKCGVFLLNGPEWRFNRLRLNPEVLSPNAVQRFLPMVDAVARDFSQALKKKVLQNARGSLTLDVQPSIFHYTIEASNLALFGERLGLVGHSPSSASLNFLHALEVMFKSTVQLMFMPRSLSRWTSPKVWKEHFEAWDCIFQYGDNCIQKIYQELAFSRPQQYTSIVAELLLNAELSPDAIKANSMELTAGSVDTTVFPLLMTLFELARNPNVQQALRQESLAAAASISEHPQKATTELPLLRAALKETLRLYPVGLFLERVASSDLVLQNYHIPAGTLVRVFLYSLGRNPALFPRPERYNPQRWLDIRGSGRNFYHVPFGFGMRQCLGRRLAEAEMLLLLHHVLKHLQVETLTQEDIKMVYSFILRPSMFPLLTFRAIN
The experiment in a line: Inhibition of hCYP11B1 in transfected V79 cells. The class given is cell-based. The note with it: hamster V79 cells expressing human CYP11B1; substrate 11-deoxycortisol 200 nM. An outline of the steps: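 Reactions started with 200 nM 11-deoxycortisol, ran for 30 min and were stopped with ethyl acetate, after a 2 h compound preincubation. The host was stably transfected V79 hamster cells carrying human CYP11B1 plus rat P450 reductase. Percent inhibition, from LC-MS/MS or HPLC (260 nm) quantitation of substrate and product, gave the IC50.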

The target of another test is T2, human CYP11B2 (Homo sapiens, UniProt P19099).
T2 construct: expressed in transfected cells
T2 sequence (P19099 25-503): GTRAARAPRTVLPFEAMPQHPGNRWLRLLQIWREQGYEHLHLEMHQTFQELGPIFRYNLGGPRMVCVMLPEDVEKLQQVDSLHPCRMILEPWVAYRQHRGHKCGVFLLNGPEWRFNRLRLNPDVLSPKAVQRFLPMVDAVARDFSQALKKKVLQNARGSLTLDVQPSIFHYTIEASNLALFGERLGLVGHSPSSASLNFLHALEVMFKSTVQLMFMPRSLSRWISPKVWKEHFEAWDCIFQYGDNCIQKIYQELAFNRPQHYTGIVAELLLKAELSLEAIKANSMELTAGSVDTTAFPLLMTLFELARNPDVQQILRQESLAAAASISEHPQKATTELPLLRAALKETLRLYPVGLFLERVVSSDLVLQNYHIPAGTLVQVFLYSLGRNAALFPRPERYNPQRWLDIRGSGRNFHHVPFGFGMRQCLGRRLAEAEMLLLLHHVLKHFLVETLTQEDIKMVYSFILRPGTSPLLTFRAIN
The experiment in a line: Inhibition of hCYP11B2 in transfected V79 cells. The note with it: hamster V79 cells expressing human CYP11B2; substrate 11-deoxycorticosterone 200 nM. The class given is cell-based. An outline of the steps:
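The substrate (200 nM, 30 min) was added after a 2 hour compound pre-incubation in lentivirus-transduced V79 cells stably expressing human CYP11B2 plus rat NADPH-P450 reductase.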

By IC50 is commonly meant the midpoint of a concentration-inhibition curve. A low value points to greater potency. In the case of `N#Cc1ccc(-c2cncc3c2ccn3C(=O)c2ccccc2[N+](=O)[O-])cc1` [E29, 4-(1-(2-Nitrobenzoyl)-1H-pyrrolo[2,3-c]pyridin-4-yl)benzonitrile], the 50% inhibitory concentration (IC50) against human CYP11B1 is 9 nM; against human CYP11B2, 2.5 nM.

With `N#Cc1ccc(-c2cncc3c2ccn3C(=O)c2ccc(F)cc2)cc1` [E30, 4-(1-(4-Fluorobenzoyl)-1H-pyrrolo[2,3-c]pyridin-4-yl)benzonitrile], the 50% inhibitory concentration (IC50) against human CYP11B1 was determined as 11 nM; on human CYP11B2, 0.1 nM.

`O=C(c1ccc(F)cc1)n1ccc2c(-c3cc4ccccc4s3)cncc21` [E31, (4-(Benzo[b]thiophen-2-yl)-1H-pyrrolo[2,3-c]pyridin-1-yl)(4-fluorophenyl)methanone]: the half-inhibitory concentration (IC50) against human CYP11B1 is 635 nM; against human CYP11B2, 10 nM.

`O=C(c1ccc(F)cc1)n1ccc2c(-c3cc4ccccc4o3)cncc21` [E32, (4-(Benzofuran-2-yl)-1H-pyrrolo[2,3-c]pyridin-1-yl)(4-fluorophenyl)methanone]: the figures for the IC50 at human CYP11B1 and against human CYP11B2 were 269 nM and 13 nM, respectively.

`O=C(c1ccc(F)cc1)n1ccc2c(-c3ccc4occc4c3)cncc21` [E33, (4-(Benzofuran-5-yl)-1H-pyrrolo[2,3-c]pyridin-1-yl)(4-fluorophenyl)methanone]: the concentration for half-maximal inhibition (IC50) against human CYP11B1 turned out to be 673 nM; at human CYP11B2, 32 nM.

For `O=C(c1ccc(F)cc1)n1ccc2c(-c3cc4ccccc4[nH]3)cncc21` [E34, (4-(1H-Indol-2-yl)-1H-pyrrolo[2,3-c]pyridin-1-yl)(4-fluorophenyl)methanone], the IC50 on human CYP11B1 came out at 375 nM; on human CYP11B2, 5 nM.

With `Cn1ncc2ccc(-c3cncc4c3ccn4C(=O)c3ccc(F)cc3)cc21` [E35, (4-Fluorophenyl)(4-(1-methyl-1H-indazol-6-yl)-1H-pyrrolo[2,3-c]pyridin-1-yl)methanone], the IC50 came out at 857 nM against human CYP11B1 and 17 nM against human CYP11B2.

`O=C(c1ccc(F)cc1)n1ccc2c(-c3ccc4ncsc4c3)cncc21` [E36, (4-(Benzo[d]thiazol-6-yl)-1H-pyrrolo[2,3-c]pyridin-1-yl)(4-fluorophenyl)methanone]: the half-maximal inhibitory concentration (IC50) at human CYP11B1 was found to be 1980 nM; on human CYP11B2 it was 29 nM.

As to `O=C(c1ccc(F)cc1)n1ccc2c(-c3ccc4nccn4c3)cncc21` [E37, (4-Fluorophenyl)(4-(imidazo[1,2-a]pyridin-6-yl)-1H-pyrrolo[2,3-c]pyridin-1-yl)methanone], the IC50 against human CYP11B1 was found to be 455 nM; at human CYP11B2 it was 0.6 nM.

Take `O=C(c1ccc(F)cc1)n1ccc2c(-c3ccc4ncoc4c3)cncc21` [E38, (4-(Benzo[d]oxazol-6-yl)-1H-pyrrolo[2,3-c]pyridin-1-yl)(4-fluorophenyl)methanone]: the IC50 on human CYP11B1 was found to be 49 nM; on human CYP11B2, 8 nM.

Consider `O=C(c1ccc(F)cc1)n1ccc2c(-c3ccn4ccnc4c3)cncc21` [E39, (4-Fluorophenyl)(4-(imidazo[1,2-a]pyridin-7-yl)-1H-pyrrolo[2,3-c]pyridin-1-yl)methanone], for which the figures for the IC50 on human CYP11B1 and at human CYP11B2 were 678 nM and 12 nM, respectively.

Regarding `Cn1c(=O)c(=O)[nH]c2cncc(-c3ccc(C#N)cc3)c21` [N1, 4-(1-Methyl-2,3-dioxo-1,2,3,4-tetrahydropyrido[3,4-b]pyrazin-8-yl)benzonitrile], the IC50 against human CYP11B1 was 409 nM; at human CYP11B2, 372 nM.

As for `Cn1c(=O)c(=O)[nH]c2cncc(-c3ccc(F)cc3)c21` [N2, 8-(4-Fluorophenyl)-1-methyl-1,4-dihydropyrido[3,4-b]pyrazine-2,3-dione], the IC50 is 746 nM against human CYP11B1 and 593 nM at human CYP11B2.

As to `CN1CCNc2cncc(-c3ccc(C#N)cc3)c21` [N3, 4-(1-Methyl-1,2,3,4-tetrahydropyrido[3,4-b]pyrazin-8-yl)benzonitrile], the results for the IC50 against human CYP11B1 and against human CYP11B2 were 394 nM and 311 nM, respectively.

For `CN1CCN(S(=O)(=O)c2ccc(C#N)cc2)c2cncc(-c3ccc(C#N)cc3)c21` [N4, 4-((8-(4-Cyanophenyl)-1-methyl-2,3-dihydropyrido[3,4-b]pyrazin-4 (1H)-yl)sulfonyl)benzonitrile], the IC50 on human CYP11B1 was found to be 5.2 nM; against human CYP11B2, 0.6 nM.

Turning to `CN1CCN(C(=O)c2ccc(F)cc2)c2cncc(-c3ccc(C#N)cc3)c21` [N5, 4-(4-(4-Fluorobenzoyl)-1-methyl-1,2,3,4-tetrahydropyrido[3,4-b]pyrazin-8-yl)benzonitrile], the half-inhibitory concentration (IC50) was found to be 48 nM against human CYP11B1 and 7.8 nM at human CYP11B2.

For `Cn1cnc2cncc(-c3ccc(C#N)cc3)c21` [N6, 4-(1-Methyl-1H-imidazo[4,5-c]pyridin-7-yl)benzonitrile], the figures for the IC50 against human CYP11B1 and against human CYP11B2 were 661 nM and 655 nM, respectively.

For the compound `N#Cc1ccc(-c2cncc3ncn(C4CC4)c23)cc1` [N7, 4-(1-Cyclopropyl-1H-imidazo[4,5-c]pyridin-7-yl)benzonitrile], the IC50 was found to be 453 nM against human CYP11B1 and 679 nM at human CYP11B2.

As for `N#Cc1ccc(-c2cncc3c2OCCN3S(=O)(=O)c2ccccc2)cc1` [O1, 4-(4-(Phenylsulfonyl)-3,4-dihydro-2H-pyrido[4,3-b][1,4]oxazin-8-yl)benzonitrile], the IC50 at human CYP11B1 was determined as 0.22 nM; against human CYP11B2 it was 0.16 nM.

Take `N#Cc1ccc(-c2cncc3c2OCCN3S(=O)(=O)c2ccc(F)cc2)cc1` [O2, 4-(4-((4-Fluorophenyl)sulfonyl)-3,4-dihydro-2H-pyrido[4,3-b][1,4]oxazin-8-yl)benzonitrile]: the IC50 against human CYP11B1 was 0.56 nM; at human CYP11B2, 0.13 nM.

For `N#Cc1ccc(-c2cncc3c2OCCN3S(=O)(=O)c2cccc(F)c2)cc1` [O3, 4-(4-((3-Fluorophenyl)sulfonyl)-3,4-dihydro-2H-pyrido[4,3-b][1,4]oxazin-8-yl)benzonitrile], the figures for the concentration for half-maximal inhibition (IC50) at human CYP11B1 and against human CYP11B2 were 0.1 nM and 0.14 nM, respectively.

In the case of `Cc1ccc(S(=O)(=O)N2CCOc3c(-c4ccc(C#N)cc4)cncc32)cc1` [O4, 4-(4-Tosyl-3,4-dihydro-2H-pyrido[4,3-b][1,4]oxazin-8-yl)benzonitrile], the IC50 on human CYP11B1 and against human CYP11B2 was 0.1 nM each time.

As to `Cc1cccc(S(=O)(=O)N2CCOc3c(-c4ccc(C#N)cc4)cncc32)c1` [O5, 4-(4-(m-Tolylsulfonyl)-3,4-dihydro-2H-pyrido[4,3-b][1,4]oxazin-8-yl)benzonitrile], the IC50 at human CYP11B1 came to 0.48 nM; against human CYP11B2, 0.23 nM.

For `N#Cc1ccc(-c2cncc3c2OCCN3S(=O)(=O)c2ccc(Cl)cc2)cc1` [O6, 4-(4-((4-Chlorophenyl)sulfonyl)-3,4-dihydro-2H-pyrido[4,3-b][1,4]oxazin-8-yl)benzonitrile], the IC50 against human CYP11B1 stood at 0.66 nM; on human CYP11B2, 0.41 nM.

As for `N#Cc1ccc(-c2cncc3c2OCCN3S(=O)(=O)c2cccc(Cl)c2)cc1` [O7, 4-(4-((3-Chlorophenyl)sulfonyl)-3,4-dihydro-2H-pyrido[4,3-b][1,4]oxazin-8-yl)benzonitrile], the figures for the concentration for half-maximal inhibition (IC50) against human CYP11B1 and against human CYP11B2 were 0.12 nM and 0.47 nM, respectively.

As for `COc1ccc(S(=O)(=O)N2CCOc3c(-c4ccc(C#N)cc4)cncc32)cc1` [O8, 4-(4-((4-Methoxyphenyl)sulfonyl)-3,4-dihydro-2H-pyrido[4,3-b][1,4]oxazin-8-yl)benzonitrile], the concentration for half-maximal inhibition (IC50) at human CYP11B1 and on human CYP11B2 was 0.02 nM in each case.

For `N#Cc1ccc(-c2cncc3c2OCCN3S(=O)(=O)c2ccc([N+](=O)[O-])cc2)cc1` [O9, 4-(4-((4-Nitrophenyl)sulfonyl)-3,4-dihydro-2H-pyrido[4,3-b][1,4]oxazin-8-yl)benzonitrile], the IC50 stood at 1.1 nM at human CYP11B1 and 0.11 nM on human CYP11B2.

For the compound `N#Cc1ccc(-c2cncc3c2OCCN3S(=O)(=O)c2cccc([N+](=O)[O-])c2)cc1` [O10, 4-(4-((3-Nitrophenyl)sulfonyl)-3,4-dihydro-2H-pyrido[4,3-b][1,4]oxazin-8-yl)benzonitrile], the IC50 against human CYP11B1 is 2.8 nM; at human CYP11B2, 0.41 nM.

On to `N#Cc1ccc(-c2cncc3c2OCCN3S(=O)(=O)c2ccc(C(F)(F)F)cc2)cc1` [O11, 4-(4-((4-(Trifluoromethyl)phenyl)sulfonyl)-3,4-dihydro-2H-pyrido[4,3-b][1,4]oxazin-8-yl)benzonitrile], for which the IC50 came to 2 nM against human CYP11B1 and 0.04 nM at human CYP11B2.
